US20250235543A1, “MODIFIED PROTEINS AND PROTEIN DEGRADERS” (Cullgen (Shanghai), Inc., priority 2021, published 2025)

Key:
cyclin D1 = assay: Cyclin D1 percentage degradation in Calu-1 cells (immunoblotting); assay type: cell-based; conditions: 16 hours
In short: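 Cyclin D1 degradation was assessed by western blot. Clarified lysates, obtained by RIPA lysis with inhibitors and centrifugation at 13,000 rpm, were normalized by BCA protein assay and separated by SDS-PAGE. Bands were detected with Western ECL Substrate on a Bio-Rad ChemiDoc MP Imaging system and quantified in Image Lab software to derive percentage degradation.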

CDK4 = biological target: T1, CDK4 (Homo sapiens, UniProt P11802); assay: CDK4 percentage degradation in Calu-1 cells (immunoblotting); assay type: cell-based; conditions: Calu-1 cells, 16 hours; for inhibition at 0.2 µM: 200 nM, read-out: CDK4 Degradation (200 nM); for inhibition at 10 µM: read-out: CDK4 Degradation (10 μM)
T1 construct: endogenous in cells; host or cells: Calu-1
T1 sequence (P11802 2-303 limits assumed): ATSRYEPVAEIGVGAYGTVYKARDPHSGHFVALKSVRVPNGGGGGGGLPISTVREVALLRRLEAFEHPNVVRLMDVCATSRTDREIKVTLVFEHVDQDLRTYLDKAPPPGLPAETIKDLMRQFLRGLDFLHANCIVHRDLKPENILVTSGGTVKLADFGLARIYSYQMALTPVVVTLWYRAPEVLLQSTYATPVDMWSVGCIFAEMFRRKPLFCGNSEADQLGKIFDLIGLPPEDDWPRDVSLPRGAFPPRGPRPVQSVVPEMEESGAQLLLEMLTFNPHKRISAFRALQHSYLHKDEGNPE
T1 sequence (P24385 whole entry partner): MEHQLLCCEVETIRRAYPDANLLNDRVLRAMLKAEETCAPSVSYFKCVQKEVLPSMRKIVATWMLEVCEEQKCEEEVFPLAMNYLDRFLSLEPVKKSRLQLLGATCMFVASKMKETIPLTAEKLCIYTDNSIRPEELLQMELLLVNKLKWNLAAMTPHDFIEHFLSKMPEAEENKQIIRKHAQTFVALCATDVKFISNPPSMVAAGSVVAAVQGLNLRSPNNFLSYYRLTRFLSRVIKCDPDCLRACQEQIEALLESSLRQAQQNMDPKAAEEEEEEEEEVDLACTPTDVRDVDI
T1 sequence (Q16531 2-1140 limits assumed, further chain): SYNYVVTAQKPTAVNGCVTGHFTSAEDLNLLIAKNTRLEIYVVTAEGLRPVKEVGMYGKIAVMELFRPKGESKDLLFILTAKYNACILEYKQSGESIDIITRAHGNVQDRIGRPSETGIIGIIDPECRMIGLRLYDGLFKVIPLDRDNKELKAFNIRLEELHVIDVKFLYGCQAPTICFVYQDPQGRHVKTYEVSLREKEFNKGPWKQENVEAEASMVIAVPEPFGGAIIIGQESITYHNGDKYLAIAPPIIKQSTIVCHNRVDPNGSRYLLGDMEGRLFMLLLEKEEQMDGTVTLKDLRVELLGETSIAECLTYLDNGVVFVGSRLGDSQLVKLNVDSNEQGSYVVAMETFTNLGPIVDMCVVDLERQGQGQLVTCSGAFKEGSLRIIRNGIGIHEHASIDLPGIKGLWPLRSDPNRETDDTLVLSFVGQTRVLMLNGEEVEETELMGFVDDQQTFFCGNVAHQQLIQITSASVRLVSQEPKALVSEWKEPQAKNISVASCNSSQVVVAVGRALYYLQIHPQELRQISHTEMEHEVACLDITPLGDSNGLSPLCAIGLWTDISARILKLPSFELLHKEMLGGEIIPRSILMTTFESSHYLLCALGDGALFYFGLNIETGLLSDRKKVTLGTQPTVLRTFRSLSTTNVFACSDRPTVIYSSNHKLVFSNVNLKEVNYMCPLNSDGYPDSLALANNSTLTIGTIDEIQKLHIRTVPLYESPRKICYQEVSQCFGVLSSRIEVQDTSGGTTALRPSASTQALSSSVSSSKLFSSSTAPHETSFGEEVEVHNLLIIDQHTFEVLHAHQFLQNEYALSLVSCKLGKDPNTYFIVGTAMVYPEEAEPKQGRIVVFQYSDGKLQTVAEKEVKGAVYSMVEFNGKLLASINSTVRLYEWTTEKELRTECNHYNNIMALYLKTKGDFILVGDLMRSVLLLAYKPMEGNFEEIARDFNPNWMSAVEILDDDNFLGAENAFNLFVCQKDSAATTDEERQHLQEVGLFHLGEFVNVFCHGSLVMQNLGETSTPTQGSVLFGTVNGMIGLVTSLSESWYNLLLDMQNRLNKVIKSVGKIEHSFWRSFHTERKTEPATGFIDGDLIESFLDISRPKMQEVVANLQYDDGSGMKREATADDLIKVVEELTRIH
In short: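 CDK4 degradation was measured by immunoblotting. Cells were washed in cold PBS and lysed in RIPA buffer with inhibitors for 30 min at 4° C., then spun at 13,000 rpm to clear. After BCA protein determination, lysates were heated at 99° C. for 5 min in Laemmli buffer, resolved on SDS-PAGE, imaged on a ChemiDoc MP with ECL substrate, and band intensities quantified.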

Structure (SMILES) | inhibition at 0.2 µM (CDK4) | inhibition at 10 µM (CDK4) | CyclinD1 Degradation (200 nM) (cyclin D1) | CyclinD1 Degradation (10 μM) (cyclin D1)
CC(=O)c1c(C)c2cnc(Nc3ccc(N4CCN(CC(=O)NCCOCCOCCOCCOCCNC(=O)c5ccc(C(=O)Nc6ncc(C)s6)c(C)c5)CC4)cn3)nc2n(C2CCCC2)c1=O [CPD-012, N^4-(1-(4-(6-((6-Acetyl-8-cyclopentyl-5-methyl-7-oxo-7,8-dihydropyrido[2,3-d]pyrimidin-2-yl)amino)pyridin-3-yl)piperazin-1-yl)-2-oxo-6,9,12,15-tetraoxa-3-azaheptadecan-17-yl)-2-methyl-N^1-(5-methylthiazol-2-yl)terephthalamide] | < 30% | – | D (protein percentage degradation <30%) | –
CNc1ccc(C(=O)Nc2nc(C)c(C)s2)c(NC(=O)CCOCCOCCNC(=O)CN2CCN(c3ccc(Nc4ncc5c(C)c(C(C)=O)c(=O)n(C6CCCC6)c5n4)nc3)CC2)c1 [CPD-164, 2-(3-(2-(2-(2-(4-(6-((6-Acetyl-8-cyclopentyl-5-methyl-7-oxo-7,8-dihydropyrido[2,3-d]pyrimidin-2-yl)amino)pyridin-3-yl)piperazin-1-yl)acetamido)ethoxy)ethoxy)propanamido)-N-(4,5-dimethylthiazol-2-yl)-4-(methylamino)benzamide] | 50 to 80% | – | A (protein percentage degradation >=80%) | –
CC(=O)c1c(C)c2cnc(Nc3ccc(N4CCN(CC(=O)NCCOCCOCCC(=O)Nc5ccccc5C(=O)Nc5ccc(C#N)cn5)CC4)cn3)nc2n(C2CCCC2)c1=O [CPD-083, 2-(3-(2-(2-(2-(4-(6-((6-Acetyl-8-cyclopentyl-5-methyl-7-oxo-7,8-dihydropyrido[2,3-d]pyrimidin-2-yl)amino)pyridin-3-yl)piperazin-1-yl)acetamido)ethoxy)ethoxy)propanamido)-N-(5-cyanopyridin-2-yl)benzamide] | 50 to 80% | – | A (protein percentage degradation >=80%) | –
CC(=O)c1c(C)c2cnc(Nc3ccc(N4CCN(CC(=O)NCCOCCOCCOCCNC(=O)c5ccc(C(=O)Nc6ncc(C)s6)c(C)c5)CC4)cn3)nc2n(C2CCCC2)c1=O [CPD-011, N^4-(1-(4-(6-((6-Acetyl-8-cyclopentyl-5-methyl-7-oxo-7,8-dihydropyrido[2,3-d]pyrimidin-2-yl)amino)pyridin-3-yl)piperazin-1-yl)-2-oxo-6,9,12-trioxa-3-azatetradecan-14-yl)-2-methyl-N^1-(5-methylthiazol-2-yl)terephthalamide] | < 30% | – | D (protein percentage degradation <30%) | –
CC(=O)c1c(C)c2cnc(Nc3ccc(N4CCN(CC(=O)NCCCCCCCCCNC(=O)c5ccc(C(=O)Nc6ncc(C)s6)c(C)c5)CC4)cn3)nc2n(C2CCCC2)c1=O [CPD-024, N^4-(9-(2-(4-(6-((6-Acetyl-8-cyclopentyl-5-methyl-7-oxo-7,8-dihydropyrido[2,3-d]pyrimidin-2-yl)amino)pyridin-3-yl)piperazin-1-yl)acetamido)nonyl)-2-methyl-N^1-(5-methylthiazol-2-yl)terephthalamide] | < 30% | – | D (protein percentage degradation <30%) | –
CC(=O)c1c(C)c2cnc(Nc3ccc(N4CCN(CC(=O)NCCCCC(=O)Nc5ccccc5C(=O)Nc5nc(C)c(C)s5)CC4)cn3)nc2n(C2CCCC2)c1=O [CPD-174, 2-(5-(2-(4-(6-((6-Acetyl-8-cyclopentyl-5-methyl-7-oxo-7,8-dihydropyrido[2,3-d]pyrimidin-2-yl)amino)pyridin-3-yl)piperazin-1-yl)acetamido)pentanamido)-N-(4,5-dimethylthiazol-2-yl)benzamide] | > 80% | – | A (protein percentage degradation >=80%) | –

Now from value to compound, other results behind:

inhibition at 0.2 µM (CDK4) | inhibition at 10 µM (CDK4) | Structure (SMILES) | CyclinD1 Degradation (200 nM) (cyclin D1) | CyclinD1 Degradation (10 μM) (cyclin D1)
< 30% | – | COc1ccc(NC(=O)c2ccccc2NC(=O)COCCO[C@H]2CC[C@H](NC(=O)CN3CCN(c4ccc(Nc5ncc6c(C)c(C(C)=O)c(=O)n(C7CCCC7)c6n5)nc4)CC3)CC2)nn1 [CPD-366, 2-(2-(2-((trans-4-(2-(4-(6-((6-Acetyl-8-cyclopentyl-5-methyl-7-oxo-7,8-dihydropyrido[2,3-d]pyrimidin-2-yl)amino)pyridin-3-yl)piperazin-1-yl)acetamido)cyclohexyl)oxy)ethoxy)acetamido)-N-(6-methoxypyridazin-3-yl)benzamide] | D (protein percentage degradation <30%) | –
50 to 80% | – | CC(=O)c1c(C)c2cnc(Nc3ccc(N4CCN(CC(=O)NCCOCCOCCC(=O)Nc5ccccc5C(=O)Nc5ccc(C6CC6)cn5)CC4)cn3)nc2n(C2CCCC2)c1=O [CPD-184, 2-(3-(2-(2-(2-(4-(6-((6-Acetyl-8-cyclopentyl-5-methyl-7-oxo-7,8-dihydropyrido[2,3-d]pyrimidin-2-yl)amino)pyridin-3-yl)piperazin-1-yl)acetamido)ethoxy)ethoxy)propanamido)-N-(5-cyclopropylpyridin-2-yl)benzamide] | A (protein percentage degradation >=80%) | –
– | 50 to 80% | Cc1nc(NC(=O)c2ccccc2NC(=O)CNC(=O)CN2CCN(c3ccc(Nc4ncc5cc(C(=O)N(C)C)n(C6CCCC6)c5n4)nc3)CC2)sc1C [CPD-286, 7-Cyclopentyl-2-((5-(4-(2-((2-((2-((4,5-dimethylthiazol-2-yl)carbamoyl)phenyl)amino)-2-oxoethyl)amino)-2-oxoethyl)piperazin-1-yl)pyridin-2-yl)amino)-N,N-dimethyl-7H-pyrrolo[2,3-d]pyrimidine-6-carboxamide] | – | A (protein percentage degradation >= 80%)
– | 50 to 80% | Cc1nc(NC(=O)c2ccccc2NC(=O)CCCCNC(=O)CN2CCN(c3ccc(Nc4ncc5cc6n(c5n4)C4(CCCCC4)CNC6=O)nc3)CC2)sc1C [CPD-317, N-(4,5-Dimethylthiazol-2-yl)-2-(5-(2-(4-(6-((6′-oxo-7′,8′-dihydro-6′H-spiro[cyclohexane-1,9′-pyrazino[1′,2′:1,5]pyrrolo[2,3-d]pyrimidin]-2′-yl)amino)pyridin-3-yl)piperazin-1-yl)acetamido)pentanamido)benzamide] | – | A (protein percentage degradation >= 80%)
50 to 80% | – | CC(=O)c1c(C)c2cnc(Nc3ccc(N4CCN(CC(=O)NCCCCCNc5ccccc5C(=O)Nc5nc(C)c(C)s5)CC4)cn3)nc2n(C2CCCC2)c1=O [CPD-363, 2-((5-(2-(4-(6-((6-Acetyl-8-cyclopentyl-5-methyl-7-oxo-7,8-dihydropyrido[2,3-d]pyrimidin-2-yl)amino)pyridin-3-yl)piperazin-1-yl)acetamido)pentyl)amino)-N-(4,5-dimethylthiazol-2-yl)benzamide] | A (protein percentage degradation >=80%) | –
– | < 30% | Cc1nc(NC(=O)c2ccccc2NC(=O)CCCNC(=O)CN2CCN(c3ccc(Nc4ncc5cc6n(c5n4)C4(CCCCC4)CNC6=O)nc3)CC2)sc1C [CPD-316, N-(4,5-Dimethylthiazol-2-yl)-2-(4-(2-(4-(6-((6′-oxo-7′,8′-dihydro-6′H-spiro[cyclohexane-1,9′-pyrazino[1′,2′:1,5]pyrrolo[2,3-d]pyrimidin]-2′-yl)amino)pyridin-3-yl)piperazin-1-yl)acetamido)butanamido)benzamide] | – | D (protein percentage degradation < 30%)
